Test results: ChEMBL document CHEMBL5046282, “Discovery of Brain-Penetrant Glucosylceramide Synthase Inhibitors with a Novel Pharmacophore” (J Med Chem, 2022)
pEC50, pIC50: −log10 of the molar value. ≈ marks a conversion by molar mass, not a printed value.

What was measured:
[1] = 1-Octanol/aqueous buffer partition coefficient, logD of the compound at pH 7.4 by chromatographic method; assay type: physicochemical
[2] = Kinetic solubility of the compound in JP2 fluid at pH 6.8 by precipitation method; assay type: physicochemical; conditions: read-out: Kinetic_solubility
[3] = Intrinsic clearance in mouse liver microsomes at 1 uM in presence of NADPH generating system assessed per mg protein by LC-MS/MS analysis; assay type: ADME, Microsome; conditions: read-out: CLH
[4] = target: T1, hERG (Homo sapiens, UniProt Q12809); test: Inhibition of hERG expressed in CHO-K1 cells at 10 uM incubated for 5 mins by whole cell-automated voltage clamp analysis; assay type: toxicity, cell-based; conditions: CHO-K1 cells expressing hERG
[5] = Efflux ratio of apparent permeability from basolateral to apical side over apical to basolateral side in dog MDCK-MDR1 cells at 1 uM measured after 1 hr by LC-MS/MS analysis; assay type: ADME, cell-based, Canis lupus familiaris
[6] = target: T2, Ceramide glucosyltransferase (Mus musculus, UniProt O88693); test: Inhibition of mouse GCS using C8-ceramide and UDP-glucose as substrate incubated for 1 hr by RapidFire mass spectrometry
T2 sequence (O88693 whole entry): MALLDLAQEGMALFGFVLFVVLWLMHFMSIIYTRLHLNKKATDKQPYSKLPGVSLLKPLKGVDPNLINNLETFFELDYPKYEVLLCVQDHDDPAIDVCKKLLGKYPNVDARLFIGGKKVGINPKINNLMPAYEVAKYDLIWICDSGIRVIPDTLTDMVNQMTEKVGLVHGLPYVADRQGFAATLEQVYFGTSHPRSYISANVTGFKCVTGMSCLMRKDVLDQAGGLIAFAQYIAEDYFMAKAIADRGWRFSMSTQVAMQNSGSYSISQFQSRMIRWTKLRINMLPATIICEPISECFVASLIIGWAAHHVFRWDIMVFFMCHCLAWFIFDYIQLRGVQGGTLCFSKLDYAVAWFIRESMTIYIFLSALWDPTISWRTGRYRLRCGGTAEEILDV

[7] = target: T3, CYP1A2 (Homo sapiens, UniProt P05177); test: Inhibition of CYP1A2 in human liver microsomes using tacrine as substrate at 10 uM in presence of NADPH generating system incubated for 10 mins; assay type: ADME; conditions: probe tacrine
T3 sequence (P05177 whole entry): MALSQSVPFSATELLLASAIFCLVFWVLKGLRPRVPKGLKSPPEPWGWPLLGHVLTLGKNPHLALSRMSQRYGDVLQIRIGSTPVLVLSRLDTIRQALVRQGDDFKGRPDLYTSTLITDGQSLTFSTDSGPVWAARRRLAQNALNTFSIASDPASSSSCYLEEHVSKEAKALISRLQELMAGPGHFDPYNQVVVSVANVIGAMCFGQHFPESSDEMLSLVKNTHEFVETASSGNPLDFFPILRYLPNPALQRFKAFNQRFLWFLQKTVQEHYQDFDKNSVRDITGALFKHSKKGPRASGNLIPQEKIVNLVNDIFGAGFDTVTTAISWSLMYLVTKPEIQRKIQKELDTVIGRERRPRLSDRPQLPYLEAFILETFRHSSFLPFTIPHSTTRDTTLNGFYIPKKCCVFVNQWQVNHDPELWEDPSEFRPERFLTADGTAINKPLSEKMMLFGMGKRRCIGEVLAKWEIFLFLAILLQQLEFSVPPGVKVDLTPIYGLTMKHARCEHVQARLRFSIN

[8] = target: T4, CYP2C8 (Homo sapiens, UniProt P10632); test: Inhibition of CYP2C8 in human liver microsomes using paclitaxel as substrate at 10 uM in presence of NADPH generating system incubated for 10 mins; assay type: ADME; conditions: probe paclitaxel
T4 sequence (P10632 whole entry): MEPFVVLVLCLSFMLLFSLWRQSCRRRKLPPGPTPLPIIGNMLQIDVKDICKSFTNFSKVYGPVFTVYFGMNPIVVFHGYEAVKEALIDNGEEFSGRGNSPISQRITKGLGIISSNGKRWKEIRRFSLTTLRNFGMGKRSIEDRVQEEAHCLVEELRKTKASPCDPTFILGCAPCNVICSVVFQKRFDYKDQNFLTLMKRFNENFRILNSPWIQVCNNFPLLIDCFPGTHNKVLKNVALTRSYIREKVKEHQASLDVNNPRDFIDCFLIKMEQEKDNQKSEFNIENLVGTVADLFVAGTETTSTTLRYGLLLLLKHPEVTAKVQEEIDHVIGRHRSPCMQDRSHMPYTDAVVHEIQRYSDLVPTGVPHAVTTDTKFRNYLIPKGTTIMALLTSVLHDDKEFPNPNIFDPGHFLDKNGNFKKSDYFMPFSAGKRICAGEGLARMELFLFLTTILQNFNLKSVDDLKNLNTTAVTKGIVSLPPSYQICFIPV

[9] = target: CYP2C9 (Homo sapiens, UniProt P11712); test: Inhibition of CYP2C9 in human liver microsomes using tolbutamide as substrate at 10 uM in presence of NADPH generating system incubated for 10 mins; assay type: ADME; conditions: probe tolbutamide
[10] = target: CYP2D6 (Homo sapiens, UniProt P10635); test: Inhibition of CYP2D6 in human liver microsomes using dextromethorphan as substrate at 10 uM in presence of NADPH generating system incubated for 10 mins; assay type: ADME; conditions: probe dextromethorphan
[11] = target: CYP3A4 (Homo sapiens, UniProt P08684); test: Inhibition of CYP3A4 in human liver microsomes using midazolam as substrate at 10 uM in presence of NADPH generating system incubated for 10 mins; assay type: ADME; conditions: probe midazolam
[12] = Plasma clearance in non-fasted ICR mouse at 0.5 mg/kg, iv by LC-MS/MS analysis; assay type: ADME, organism-based
[13] = Volume of distribution at steady state in non-fasted ICR mouse at 0.5 mg/kg, iv by LC-MS/MS analysis; assay type: ADME, organism-based; conditions: in vivo, read-out: Vdss
[14] = MRT in non-fasted ICR mouse at 0.5 mg/kg, iv by LC-MS/MS analysis; assay type: ADME, organism-based; conditions: in vivo
[15] = Cmax in non-fasted ICR mouse at 5 mg/kg, po by LC-MS/MS analysis; assay type: ADME, organism-based; parameters: route oral, dose 5 mg/kg; conditions: in vivo
[16] = AUC in non-fasted ICR mouse at 5 mg/kg, po by LC-MS/MS analysis; assay type: ADME, organism-based; parameters: dose 5 mg/kg; conditions: in vivo
[17] = MRT in non-fasted ICR mouse at 5 mg/kg, po by LC-MS/MS analysis; assay type: ADME, organism-based; conditions: in vivo
[18] = Ratio of unbound drug concentration in brain to plasma of non-fasted ICR mouse at 30 mg/kg, po measured after 1 hr by LC-MS/MS analysis; assay type: ADME, organism-based; conditions: read-out: K(p,uu,brain)
[19] = Unbound drug concentration in brain of non-fasted ICR mouse at 30 mg/kg, po measured after 1 hr by LC-MS/MS analysis; assay type: ADME, organism-based; conditions: in vivo
[20] = target: T1, hERG; test: Inhibition of hERG expressed in CHO-K1 cells at 30 uM by automated whole cell patch clamp assay; assay type: toxicity, cell-based; conditions: CHO-K1 cells expressing hERG
[21] = target: Cav1.2 (Homo sapiens, UniProt Q13936); test: Inhibition of human Cav1.2 expressed in HEK293 cells at 30 uM by automated electrophysiology QPatch HT assay; assay type: toxicity, cell-based; conditions: HEK293 cells expressing Cav1.2
[22] = target: Nav1.5 (Homo sapiens, UniProt Q14524); test: Inhibition of human Nav1.5 at 30 uM by automated whole cell patch clamp assay; assay type: toxicity
[23] = Cardiotoxicity in human iPSC-derived cardiomyocytes assessed as induction of proarrhythmic activity at 30 uM by Fluo-4 dye based fluorescence analysis; assay type: toxicity; conditions: cardiac muscle cell
[24] = Toxicity in Sprague-Dawley rat assessed as reduction in body weight at 30 to 100 mg/kg, po administered once daily for 3 days; assay type: organism-based; conditions: in vivo, 72 h, dose 30-100 mg/kg, time 3 day
[25] = target: Sodium-dependent serotonin transporter (Homo sapiens, UniProt P31645); test: Inhibition of human SERT; assay type: toxicity
[26] = target: Ceramide glucosyltransferase (Homo sapiens, UniProt Q16739); test: Inhibition of GCS in GBA mutant human fibroblasts assessed as reduction in glucosylceramide level incubated for 4 days by RapdiFire-MS/MS analysis; assay type: cell-based; conditions: fibroblast
[27] = Oral bioavailability in non-fasted ICR mouse at 5 mg/kg by LC-MS/MS analysis; assay type: ADME, organism-based; conditions: in vivo
[28] = Toxicity in C57BL/6J mouse assessed as change in body weight at 30 to 100 mg/kg, po; assay type: organism-based; conditions: in vivo, dose 30-100 mg/kg
[29] = Cardiotoxicity in human iPSC-derived cardiomyocytes assessed as minimum effective concentration required for intracellular calcium transients-mediated proarrhythmic activity by Fluo-4 dye based fluorescence analysis; assay type: toxicity; conditions: cardiac muscle cell

T1 sequence (Q12809 whole entry): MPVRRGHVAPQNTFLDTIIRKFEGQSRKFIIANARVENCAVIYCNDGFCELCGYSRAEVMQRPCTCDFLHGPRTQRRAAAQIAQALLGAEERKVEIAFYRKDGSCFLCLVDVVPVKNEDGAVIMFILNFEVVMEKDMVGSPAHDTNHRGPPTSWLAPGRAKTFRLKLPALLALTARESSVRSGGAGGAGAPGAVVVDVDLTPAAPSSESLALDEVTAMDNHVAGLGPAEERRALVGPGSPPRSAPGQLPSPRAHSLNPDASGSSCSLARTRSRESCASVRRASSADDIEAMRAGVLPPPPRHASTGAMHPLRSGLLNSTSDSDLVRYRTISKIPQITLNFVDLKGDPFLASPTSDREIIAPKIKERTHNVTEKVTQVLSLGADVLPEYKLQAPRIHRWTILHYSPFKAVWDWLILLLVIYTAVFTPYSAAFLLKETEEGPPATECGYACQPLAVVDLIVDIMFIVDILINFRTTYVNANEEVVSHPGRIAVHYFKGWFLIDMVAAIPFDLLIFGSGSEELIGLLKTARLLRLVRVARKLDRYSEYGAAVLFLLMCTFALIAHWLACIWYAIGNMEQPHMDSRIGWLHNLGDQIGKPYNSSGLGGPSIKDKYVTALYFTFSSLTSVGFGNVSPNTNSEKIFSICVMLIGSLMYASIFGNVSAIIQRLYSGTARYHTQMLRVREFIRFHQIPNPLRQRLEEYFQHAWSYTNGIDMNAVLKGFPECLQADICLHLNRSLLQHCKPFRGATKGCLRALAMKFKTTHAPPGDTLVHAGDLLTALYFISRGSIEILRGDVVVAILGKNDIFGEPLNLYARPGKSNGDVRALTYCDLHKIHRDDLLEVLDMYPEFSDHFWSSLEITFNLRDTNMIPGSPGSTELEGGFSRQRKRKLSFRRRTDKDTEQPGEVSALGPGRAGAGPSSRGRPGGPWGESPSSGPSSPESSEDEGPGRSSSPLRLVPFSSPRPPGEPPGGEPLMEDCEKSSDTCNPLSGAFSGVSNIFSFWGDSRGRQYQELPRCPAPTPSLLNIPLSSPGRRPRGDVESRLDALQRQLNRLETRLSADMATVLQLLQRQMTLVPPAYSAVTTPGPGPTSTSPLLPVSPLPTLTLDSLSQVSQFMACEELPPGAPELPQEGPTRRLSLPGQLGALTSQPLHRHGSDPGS
Sodium-dependent serotonin transporter, sequence (P31645 whole entry): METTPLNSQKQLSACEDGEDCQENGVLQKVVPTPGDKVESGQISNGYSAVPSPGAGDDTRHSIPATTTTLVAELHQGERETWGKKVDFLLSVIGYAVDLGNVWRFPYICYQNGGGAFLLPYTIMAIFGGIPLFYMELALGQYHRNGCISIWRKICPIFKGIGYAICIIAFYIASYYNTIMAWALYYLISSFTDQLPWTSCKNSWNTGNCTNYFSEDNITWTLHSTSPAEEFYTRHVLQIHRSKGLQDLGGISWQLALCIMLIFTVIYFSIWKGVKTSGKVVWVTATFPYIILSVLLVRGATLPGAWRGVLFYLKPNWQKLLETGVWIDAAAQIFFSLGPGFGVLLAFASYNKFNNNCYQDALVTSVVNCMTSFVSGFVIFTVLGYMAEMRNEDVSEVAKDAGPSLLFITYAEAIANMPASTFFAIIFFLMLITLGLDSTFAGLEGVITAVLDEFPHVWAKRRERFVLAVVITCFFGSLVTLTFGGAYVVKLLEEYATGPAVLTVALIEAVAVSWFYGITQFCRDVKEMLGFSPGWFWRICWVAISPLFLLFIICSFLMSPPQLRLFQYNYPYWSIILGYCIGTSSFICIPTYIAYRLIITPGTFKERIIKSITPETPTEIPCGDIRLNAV
CYP2C9, sequence (P11712 whole entry): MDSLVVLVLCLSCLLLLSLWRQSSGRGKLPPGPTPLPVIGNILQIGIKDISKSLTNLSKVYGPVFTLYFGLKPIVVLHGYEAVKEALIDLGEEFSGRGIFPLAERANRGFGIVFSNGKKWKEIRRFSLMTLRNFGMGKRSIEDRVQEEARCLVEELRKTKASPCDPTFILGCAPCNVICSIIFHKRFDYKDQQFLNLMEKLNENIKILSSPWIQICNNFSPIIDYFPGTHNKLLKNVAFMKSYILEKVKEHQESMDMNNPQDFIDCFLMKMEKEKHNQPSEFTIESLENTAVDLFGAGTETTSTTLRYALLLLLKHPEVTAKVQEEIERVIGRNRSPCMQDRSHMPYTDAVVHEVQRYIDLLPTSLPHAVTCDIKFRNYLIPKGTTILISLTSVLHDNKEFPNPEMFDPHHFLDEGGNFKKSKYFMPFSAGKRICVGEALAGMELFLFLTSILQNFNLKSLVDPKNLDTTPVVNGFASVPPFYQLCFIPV
Cav1.2, sequence (Q13936 whole entry): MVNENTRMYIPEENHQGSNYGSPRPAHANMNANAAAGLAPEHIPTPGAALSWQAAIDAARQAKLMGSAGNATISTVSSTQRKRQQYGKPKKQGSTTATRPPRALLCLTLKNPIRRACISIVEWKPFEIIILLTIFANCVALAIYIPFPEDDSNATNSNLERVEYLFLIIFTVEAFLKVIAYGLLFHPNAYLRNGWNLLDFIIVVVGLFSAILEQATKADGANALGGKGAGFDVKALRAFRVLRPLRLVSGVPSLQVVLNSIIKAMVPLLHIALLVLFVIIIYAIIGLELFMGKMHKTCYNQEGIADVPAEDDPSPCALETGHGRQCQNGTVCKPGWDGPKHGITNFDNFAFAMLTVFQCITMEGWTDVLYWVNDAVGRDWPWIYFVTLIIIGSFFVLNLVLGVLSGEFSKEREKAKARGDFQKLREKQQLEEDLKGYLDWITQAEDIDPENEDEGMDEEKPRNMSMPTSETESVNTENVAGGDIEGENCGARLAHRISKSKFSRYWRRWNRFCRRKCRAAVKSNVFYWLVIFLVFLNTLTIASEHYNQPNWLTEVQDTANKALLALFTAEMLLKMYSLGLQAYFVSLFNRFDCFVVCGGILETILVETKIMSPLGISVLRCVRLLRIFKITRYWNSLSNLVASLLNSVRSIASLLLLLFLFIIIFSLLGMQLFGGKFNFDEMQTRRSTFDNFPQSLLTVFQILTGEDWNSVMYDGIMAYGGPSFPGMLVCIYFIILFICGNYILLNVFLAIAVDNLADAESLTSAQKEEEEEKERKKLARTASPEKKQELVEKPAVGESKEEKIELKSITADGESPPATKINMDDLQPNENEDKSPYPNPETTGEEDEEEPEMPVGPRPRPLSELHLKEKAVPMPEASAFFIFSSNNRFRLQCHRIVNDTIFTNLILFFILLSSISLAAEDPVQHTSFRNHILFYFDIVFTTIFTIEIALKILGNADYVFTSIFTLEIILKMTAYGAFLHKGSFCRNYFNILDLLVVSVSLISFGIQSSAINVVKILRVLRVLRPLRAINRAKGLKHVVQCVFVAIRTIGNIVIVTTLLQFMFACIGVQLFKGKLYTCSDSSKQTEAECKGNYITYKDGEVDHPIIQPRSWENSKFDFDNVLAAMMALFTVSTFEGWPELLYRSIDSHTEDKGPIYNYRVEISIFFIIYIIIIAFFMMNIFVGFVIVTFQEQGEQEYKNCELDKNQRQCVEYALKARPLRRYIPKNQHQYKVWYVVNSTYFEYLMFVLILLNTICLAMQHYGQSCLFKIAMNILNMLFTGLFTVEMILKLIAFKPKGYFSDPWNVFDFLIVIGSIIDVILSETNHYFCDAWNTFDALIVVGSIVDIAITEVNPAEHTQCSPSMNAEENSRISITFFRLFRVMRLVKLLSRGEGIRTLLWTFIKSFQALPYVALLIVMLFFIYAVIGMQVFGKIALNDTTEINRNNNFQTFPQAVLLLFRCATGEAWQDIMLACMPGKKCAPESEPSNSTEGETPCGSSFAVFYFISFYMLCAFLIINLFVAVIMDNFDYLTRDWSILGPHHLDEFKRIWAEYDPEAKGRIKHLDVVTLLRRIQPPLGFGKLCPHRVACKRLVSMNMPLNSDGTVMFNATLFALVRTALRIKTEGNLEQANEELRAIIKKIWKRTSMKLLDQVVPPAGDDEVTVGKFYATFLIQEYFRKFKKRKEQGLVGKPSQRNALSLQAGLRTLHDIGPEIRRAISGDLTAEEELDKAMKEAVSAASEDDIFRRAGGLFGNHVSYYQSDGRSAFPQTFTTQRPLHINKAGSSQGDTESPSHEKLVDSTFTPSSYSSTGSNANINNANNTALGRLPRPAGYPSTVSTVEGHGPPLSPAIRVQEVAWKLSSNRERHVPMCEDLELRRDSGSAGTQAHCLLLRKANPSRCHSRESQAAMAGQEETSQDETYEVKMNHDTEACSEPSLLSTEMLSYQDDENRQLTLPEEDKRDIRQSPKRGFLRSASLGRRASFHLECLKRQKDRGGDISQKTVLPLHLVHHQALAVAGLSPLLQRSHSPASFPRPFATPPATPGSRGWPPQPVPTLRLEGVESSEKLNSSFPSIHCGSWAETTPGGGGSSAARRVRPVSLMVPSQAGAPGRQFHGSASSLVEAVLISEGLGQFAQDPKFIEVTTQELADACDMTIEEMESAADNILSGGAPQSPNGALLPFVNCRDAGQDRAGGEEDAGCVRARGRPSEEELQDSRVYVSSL
Ceramide glucosyltransferase (Homo sapiens, UniProt Q16739), sequence (Q16739 whole entry, looked up, change not shown): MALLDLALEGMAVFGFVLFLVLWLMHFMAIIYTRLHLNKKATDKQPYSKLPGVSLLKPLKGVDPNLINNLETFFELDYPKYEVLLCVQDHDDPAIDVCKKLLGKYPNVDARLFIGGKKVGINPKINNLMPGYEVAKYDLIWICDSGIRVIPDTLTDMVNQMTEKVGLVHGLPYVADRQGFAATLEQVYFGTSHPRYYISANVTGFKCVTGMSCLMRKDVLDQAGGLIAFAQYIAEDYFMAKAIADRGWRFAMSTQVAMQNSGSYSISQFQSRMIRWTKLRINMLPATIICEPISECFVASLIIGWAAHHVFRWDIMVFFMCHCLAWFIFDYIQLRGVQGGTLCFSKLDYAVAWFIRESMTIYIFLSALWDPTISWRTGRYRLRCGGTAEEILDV

CC(C)(O)c1ccc(N2Cc3c(ccnc3-c3ccc(F)cc3OCC(F)(F)F)C2=O)cc1
chromatographic logD [1]: 2.48 | solubility kinetic [2]: 5.2 µg/mL (≈ 11.3 µM) | microsomal CLint at 1 µM [3]: 6 µL/min/mg | inhibition at 5 min, 10 µM [4]: 13.8% | efflux ratio at 1 h, 1 µM [5]: 9.6 | pIC50 [6]: 7.29 | inhibition at 10 min, 10 µM [7]: 5.8% | inhibition at 10 min, 10 µM [8]: 22.4% | inhibition at 10 min, 10 µM [9]: 37.9% | inhibition at 10 min, 10 µM [10]: 10.9% | inhibition at 10 min, 10 µM [11]: 15.5% | clearance [12]: 5.23 mL/min/kg | Vd [13]: 1.08 L/kg | MRT [14]: 3.44 h | Cmax [15]: 1180 ng/mL | AUC [16]: 10700 ng·h/mL | MRT [17]: 7.14 h | Kp uu at 1 h [18]: 0.11 | Drug uptake(free) [19]: 0.24 µM | inhibition at 30 µM [20]: 42% | inhibition at 30 µM [21]: 2.4% | inhibition at 30 µM [22]: 7.1% | Activity [23]: Non-Toxic | Activity [24]: Toxic | pIC50 [25]: 6.51 | pEC50 [26]: 8.12 | bioavailability [27]: 67% | Activity [28]: Non-Toxic | MEC [29]: > 30 µM
